This note sets out measurements from ChEMBL document CHEMBL3046026, “Evaluation of the curative and protectant activity of fungicides and fungicide-adjuvant mixtures on Phomopsis cane and leaf spot of grape: A controlled environment study” (2007).

For experiment [1], the system named is Diaporthe ampelina. As to the kind of experiment: Antifungal activity against Diaporthe ampelina infected grape plant assessed as disease severity at internodes at 0.25 […] a.i./ha incubated for 48 hr prior to treatment with 24 hr wetness period followed by 24 hr of drying period measured after 4 weeks in presence of regulaid (reference value: 12.2%). In kind it is functional.

Experiment [2] concerns Diaporthe ampelina. As to the kind of experiment: Antifungal activity against Diaporthe ampelina infected grape plant assessed as decrease in lesions on leaf at 0.25 […] a.i./ha incubated for 48 hr prior to treatment with 24 hr wetness period followed by 24 hr of drying period measured after 4 weeks relative to control in presence of regulaid. In kind it is functional, organism-based.

In experiment [3] the test system is Diaporthe ampelina. The experiment is described as follows: Antifungal activity against Diaporthe ampelina infected grape plant assessed as decrease in lesions on leaf at 0.25 […] a.i./ha treated 3 to 6 hr prior to inoculation followed by 24 hr wetness period measured after 4 weeks relative to control. Type of experiment: functional, organism-based.
For experiment [4], the system named is Diaporthe ampelina. The experiment is described as follows: Antifungal activity against Diaporthe ampelina infected grape plant assessed as decrease in lesions on leaf at 0.25 […] a.i./ha incubated for 20 hr prior to treatment with 16 hr wetness period followed by 4 hr of drying period measured after 4 weeks relative to control in presence of regulaid. In kind it is functional, organism-based.

In experiment [5] the test system is Diaporthe ampelina. As to the kind of experiment: Antifungal activity against Diaporthe ampelina infected grape plant assessed as disease severity at internodes at 0.25 […] a.i./ha treated 3 to 6 hr prior to inoculation followed by 24 hr wetness period measured after 4 weeks in presence of regulaid (reference value: 2.9%). In kind it is functional.
For experiment [6], the system named is Diaporthe ampelina. The experiment is described as follows: Antifungal activity against Diaporthe ampelina infected grape plant assessed as disease severity at internodes at 0.25 […] a.i./ha treated 3 to 6 hr prior to inoculation followed by 24 hr wetness period measured after 4 weeks (reference value: 2.6%). In kind it is functional.
Experiment [7] relates to Diaporthe ampelina. The experiment is described as follows: Antifungal activity against Diaporthe ampelina infected grape plant assessed as disease severity at internodes at 1.7 m3/ha incubated for 24 hr prior to treatment with 20 hr wetness period followed by 4 hr of drying period measured after 4 weeks in presence of regulaid (reference value: 3.2%). In kind it is functional.

The test system of experiment [8] is Diaporthe ampelina. As to the kind of experiment: Antifungal activity against Diaporthe ampelina infected grape plant assessed as decrease in lesions on leaf at 0.25 […] a.i./ha incubated for 24 hr prior to treatment with 20 hr wetness period followed by 4 hr of drying period measured after 4 weeks relative to control in presence of regulaid. In kind it is functional, organism-based.

In experiment [9] the test system is Diaporthe ampelina. As to the kind of experiment: Antifungal activity against Diaporthe ampelina infected grape plant assessed as decrease in lesions on leaf at 0.25 […] a.i./ha treated 3 to 6 hr prior to inoculation followed by 24 hr wetness period measured after 4 weeks relative to control in presence of regulaid. Type of experiment: functional, organism-based.

Experiment [10] has as its system Diaporthe ampelina. As to the kind of experiment: Antifungal activity against Diaporthe ampelina infected grape plant assessed as disease severity at internodes at 0.25 […] a.i./ha incubated for 20 hr prior to treatment with 16 hr wetness period followed by 4 hr of drying period measured after 4 weeks in presence of regulaid (reference value: 7.3%). In kind it is functional.

Experiment [11] concerns Diaporthe ampelina. As to the kind of experiment: Antifungal activity against Diaporthe ampelina infected grape plant assessed as re-isolation of mycelium from infected vines at 0.25 […] a.i./ha treated for weeks in presence of regulaid followed by inoculation on medium measured after 72 hr (reference value: 62.5%). Type of experiment: functional.
For experiment [12], the system named is Diaporthe ampelina. As to the kind of experiment: Antifungal activity against Diaporthe ampelina infected grape plant assessed as disease severity at internodes at 0.25 […] a.i./ha incubated for 24 hr prior to treatment with 20 hr wetness period followed by 4 hr of drying period measured after 4 weeks in presence of regulaid (reference value: 4.7%). Type of experiment: functional.

Experiment [13] has as its system Diaporthe ampelina. As to the kind of experiment: Antifungal activity against Diaporthe ampelina infected grape plant assessed as decrease in lesions on leaf at 1.7 m3/ha incubated for 24 hr prior to treatment with 20 hr wetness period followed by 4 hr of drying period measured after 4 weeks relative to control in presence of regulaid. In kind it is functional, organism-based.

For experiment [14], the system named is Diaporthe ampelina. As to the kind of experiment: Antifungal activity against Diaporthe ampelina infected grape plant assessed as disease severity at internodes at 0.12 kg a.i./ha incubated for 48 hr prior to treatment with 24 hr wetness period followed by 24 hr of drying period measured after 4 weeks in presence of regulaid (reference value: 12.2%). In kind it is functional.

Experiment [15] relates to Diaporthe ampelina. The experiment is described as follows: Antifungal activity against Diaporthe ampelina infected grape plant assessed as decrease in lesions on leaf at 0.12 kg a.i./ha incubated for 24 hr prior to treatment with 20 hr wetness period followed by 4 hr drying period measured after 4 weeks relative to control in presence of regulaid. In kind it is functional, organism-based.

For experiment [16], the system named is Diaporthe ampelina. As to the kind of experiment: Antifungal activity against Diaporthe ampelina infected grape plant assessed as decrease in lesions on leaf at 0.12 kg a.i./ha treated 3 to 6 hr prior to inoculation followed by 24 hr wetness period measured after 4 weeks relative to control. Type of experiment: functional, organism-based.
The subject of experiment [17] is Diaporthe ampelina. The experiment is described as follows: Antifungal activity against Diaporthe ampelina infected grape plant assessed as disease severity at internodes at 0.12 kg a.i./ha treated 3 to 6 hr prior to inoculation followed by 24 hr wetness period measured after 4 weeks (reference value: 2.6%). Type of experiment: functional.
Experiment [18] has as its system Diaporthe ampelina. As to the kind of experiment: Antifungal activity against Diaporthe ampelina infected grape plant assessed as re-isolation of mycelium from infected vines at 0.12 kg a.i./ha treated for weeks in presence of regulaid followed by inoculation on medium measured after 72 hr (reference value: 62.5%). In kind it is functional.
Experiment [19] has as its system Diaporthe ampelina. The experiment is described as follows: Antifungal activity against Diaporthe ampelina infected grape plant assessed as disease severity at internodes at 0.12 kg a.i./ha incubated for 20 hr prior to treatment with 16 hr wetness period and 4 hr drying time measured after 4 weeks in presence of regulaid (reference value: 7.3%). Type of experiment: functional.

The test system of experiment [20] is Diaporthe ampelina. The experiment is described as follows: Antifungal activity against Diaporthe ampelina infected grape plant assessed as disease severity at internodes at 0.12 kg a.i./ha treated 3 to 6 hr prior to inoculation followed by 24 hr wetness period measured after 4 weeks in presence of regulaid (reference value: 2.9%). Type of experiment: functional.

Experiment [21] deals with Diaporthe ampelina. As to the kind of experiment: Antifungal activity against Diaporthe ampelina infected grape plant assessed as decrease in lesions on leaf at 0.12 kg a.i./ha incubated for 20 hr prior to treatment with 16 hr wetness period and 4 hr drying time measured after 4 weeks relative to control in presence of regulaid. Type of experiment: functional, organism-based.

The subject of experiment [22] is Diaporthe ampelina. The experiment is described as follows: Antifungal activity against Diaporthe ampelina infected grape plant assessed as decrease in lesions on leaf at 0.12 kg a.i./ha treated 3 to 6 hr prior to inoculation followed by 24 hr wetness period measured after 4 weeks relative to control in presence of regulaid. Type of experiment: functional, organism-based.

Experiment [23] deals with Diaporthe ampelina. The experiment is described as follows: Antifungal activity against Diaporthe ampelina infected grape plant assessed as decrease in lesions on leaf at 0.5 kg/ha incubated for 24 hr prior to treatment with 20 hr wetness period followed by 4 hr drying period measured after 4 weeks relative to control in presence of regulaid. Type of experiment: functional, organism-based.

Experiment [24] deals with Diaporthe ampelina. The experiment is described as follows: Antifungal activity against Diaporthe ampelina infected grape plant assessed as disease severity at internodes at 0.12 kg a.i./ha incubated for 24 hr prior to treatment with 20 hr wetness period followed by 4 hr drying period measured after 4 weeks in presence of regulaid (reference value: 4.7%). Type of experiment: functional.

Experiment [25] has as its system Diaporthe ampelina. As to the kind of experiment: Antifungal activity against Diaporthe ampelina infected grape plant assessed as decrease in lesions on leaf at 0.12 kg a.i./ha incubated for 48 hr prior to treatment with 24 hr wetness period followed by 24 hr of drying period measured after 4 weeks relative to control in presence of regulaid. Type of experiment: functional, organism-based.

For experiment [26], the system named is Diaporthe ampelina. The experiment is described as follows: Antifungal activity against Diaporthe ampelina infected grape plant assessed as disease severity at internodes at 0.5 kg/ha incubated for 24 hr prior to treatment with 20 hr wetness period followed by 4 hr drying period measured after 4 weeks in presence of regulaid (reference value: 3.2%). Type of experiment: functional.

Activity calls are given as the source filed them. No cut-off for these calls is given here.

Turning to `CO/C=C(/C(=O)OC)c1ccccc1Oc1cc(Oc2ccccc2C#N)ncn1` [AZOXYSTROBIN], the Activity worked out at 3.7% with Diaporthe ampelina [1]; 0.1% with Diaporthe ampelina [5]; 0.3% in the experiment with Diaporthe ampelina [6]; 3.2% with Diaporthe ampelina [7]; 5.3% in the experiment on Diaporthe ampelina [10]; 8.4% in the experiment with Diaporthe ampelina [11]. In addition, the Activity in the experiment with Diaporthe ampelina [12] was found to be 4.9%. In addition, the result with Diaporthe ampelina [2], in the experiment with Diaporthe ampelina [4], in the experiment with Diaporthe ampelina [8] and in the experiment on Diaporthe ampelina [13] was inactive. The result in the experiment with Diaporthe ampelina [3] and with Diaporthe ampelina [9] was Active.

Consider `CCCCC(C#N)(Cn1cncn1)c1ccc(Cl)cc1` (stereo unspecified) [MYCLOBUTANIL], for which the Activity in the experiment with Diaporthe ampelina [14] was found to be 6.7%; in the experiment on Diaporthe ampelina [17], 0.6%; with Diaporthe ampelina [18], 68.7%; with Diaporthe ampelina [19], 5.2%; in the experiment on Diaporthe ampelina [20], 0.1%; with Diaporthe ampelina [24], 3.5%. Moreover, the Activity in the experiment with Diaporthe ampelina [26] came out at 3.1%. The result with Diaporthe ampelina [15], in the experiment with Diaporthe ampelina [16], with Diaporthe ampelina [21], in the experiment on Diaporthe ampelina [22], with Diaporthe ampelina [23] and in the experiment on Diaporthe ampelina [25] was inactive.
